Results: publication PMC10192418, “High-affinity peptides developed against calprotectin and their application as synthetic ligands in diagnostic assays” (Nature Communications, 2023)
Like-named read-outs stand apart in the source and are kept apart here. Peptide text beside a SMILES is read from it. * marks the point of attachment. 5FAM = O=C1OC2(c3ccc(O)cc3Oc3cc(O)ccc32)c2ccc(C(=O)*)cc21

Columns and labels:
[1] = target: T1, calprotectin tetramer (recombinant B-RCAL) (Homo sapiens, UniProt P05109); experiment: SPR binding level at a single peptide concentration (500 nM); parameters: we used the recombinant protein without removing the His-tag or cleaving the 8-amino acid linker between the two proteins; co-authors' company; details: peptides injected at 500 nM, single measurement
T1 sequence (P05109 with tags, fused parts or gaps): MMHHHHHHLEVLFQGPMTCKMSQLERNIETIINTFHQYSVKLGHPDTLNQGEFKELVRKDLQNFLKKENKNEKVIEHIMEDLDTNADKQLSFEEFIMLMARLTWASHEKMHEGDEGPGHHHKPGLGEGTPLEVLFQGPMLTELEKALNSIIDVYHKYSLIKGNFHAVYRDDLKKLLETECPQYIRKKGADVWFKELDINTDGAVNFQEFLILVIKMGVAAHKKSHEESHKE
Source text: Typical immobilization levels were 3000 resonance units (RUs).

[2] = target: T2, calprotectin tetramer (recombinant B-RCAL, His6-linker-S100A9-linker-S100A8) (Homo sapiens, UniProt P05109); experiment: Fluorescence polarization (FP) binding to recombinant calprotectin B-RCAL tetramer in presence of CaCl2; details: for effect of mutation to alanine on binding: alanine scan of linear peptide 3, found via FP and SPR
T2 construct: we used the recombinant protein without removing the His-tag or cleaving the 8-amino acid linker between the two proteins; co-authors' company
T2 sequence (P05109 with tags, fused parts or gaps): T1 sequence (P05109 with tags, fused parts or gaps)
Protocol: Calprotectin was serially diluted in 20 mM HEPES, 100 mM NaCl, 2 mM CaCl2, pH 7.5, and 1 mM DTT with 0.01% (v/v) Tween-20. Volumes of 16 μL of protein were added to 4 μL of fluorescent peptide (20 nM final concentration) in black 384-well microtiter plates. Fluorescence anisotropy was measured on a microwell plate reader (Infinite M200Pro, Tecan) with filters for excitation at 485 nm and emission at 535 nm. The dissociation constant (Kd) was calculated using a following Eq. (1) using Prism 5 software (GraphPad):1 A=Af+Ab−Af×LT+KD+PT−LT+KD+PT^2−4LTPT/2LT where A is anisotropy, Af and Ab are the anisotropy values for free and bound ligands, respectively. [L]T is the concentration of the total fluorescent ligand and [P]T the concentration of the protein.

[3] = FP, alanine scan of linear peptide 3, 20 nM peptide, 2 mM CaCl2, one measurement, NB = non-binding

| SMILES | Response at binding [1] | effect of mutation to alanine on binding [2] | Kd [2, 3] | also measured |
| --- | --- | --- | --- | --- |
| CC(C)[C@H](NC(=O)[C@H](CO)NC(=O)[C@H](CCC(=O)O)NC(=O)[C@@H]1CCCN1C(=O)[C@H](CO)NC(=O)[C@H](CCCNC(=N)N)NC(=O)c1ccc2c(c1)C(=O)OC21c2ccc(O)cc2Oc2cc(O)ccc21)C(=O)N[C@@H](C)C(=O)N[C@@H](Cc1ccccc1)C(=O)N1CCC[C@H]1C(=O)N[C@@H](C)C(=O)N[C@@H](Cc1ccccc1)C(=O)N[C@@H](CCC(N)=O)C(=O)N[C@@H](CO)C(=O)N[C@@H](Cc1c[nH]cn1)C(=O)N[C@@H](Cc1c[nH]c2ccccc12)C(=O)N[C@@H](Cc1ccc(O)cc1)C(=O)N[C@@H](CO)C(=O)NCC(N)=O [Peptide M10A] (5FAM-RSPESVAFPAFQSHWYSG-NH2) | 7 RU | complete loss in binding |  |  |
| CSCC[C@H](NC(=O)[C@@H]1CCCN1C(=O)[C@H](Cc1ccccc1)NC(=O)[C@H](C)NC(=O)[C@@H](NC(=O)[C@H](CO)NC(=O)[C@H](CCC(=O)O)NC(=O)[C@@H]1CCCN1C(=O)[C@H](CO)NC(=O)[C@H](CCCNC(=N)N)NC(=O)c1ccc2c(c1)C(=O)OC21c2ccc(O)cc2Oc2cc(O)ccc21)C(C)C)C(=O)N[C@@H](Cc1ccccc1)C(=O)N[C@@H](CCC(N)=O)C(=O)N[C@@H](CO)C(=O)N[C@@H](C)C(=O)N[C@@H](Cc1c[nH]c2ccccc12)C(=O)N[C@@H](Cc1ccc(O)cc1)C(=O)N[C@@H](CO)C(=O)NCC(N)=O [Peptide H14A] (5FAM-RSPESVAFPMFQSAWYSG-NH2) | 10 RU | complete loss in binding |  |  |
| CSCC[C@H](NC(=O)[C@@H]1CCCN1C(=O)[C@H](Cc1ccccc1)NC(=O)[C@H](C)NC(=O)[C@@H](NC(=O)[C@H](CO)NC(=O)[C@H](CCC(=O)O)NC(=O)[C@@H]1CCCN1C(=O)[C@H](CO)NC(=O)[C@H](CCCNC(=N)N)NC(=O)c1ccc2c(c1)C(=O)OC21c2ccc(O)cc2Oc2cc(O)ccc21)C(C)C)C(=O)N[C@@H](C)C(=O)N[C@@H](CCC(N)=O)C(=O)N[C@@H](CO)C(=O)N[C@@H](Cc1c[nH]cn1)C(=O)N[C@@H](Cc1c[nH]c2ccccc12)C(=O)N[C@@H](Cc1ccc(O)cc1)C(=O)N[C@@H](CO)C(=O)NCC(N)=O [Peptide F11A] (5FAM-RSPESVAFPMAQSHWYSG-NH2) | -1.75 RU | complete loss in binding |  |  |
| CSCC[C@H](NC(=O)[C@@H]1CCCN1C(=O)[C@H](Cc1ccccc1)NC(=O)[C@H](C)NC(=O)[C@@H](NC(=O)[C@H](CO)NC(=O)[C@H](CCC(=O)O)NC(=O)[C@@H]1CCCN1C(=O)[C@H](CO)NC(=O)[C@H](CCCNC(=N)N)NC(=O)c1ccc2c(c1)C(=O)OC21c2ccc(O)cc2Oc2cc(O)ccc21)C(C)C)C(=O)N[C@@H](Cc1ccccc1)C(=O)N[C@@H](CCC(N)=O)C(=O)N[C@H]1CSCC(=O)CSC[C@@H](C(=O)NCC(N)=O)NC(=O)[C@H](Cc2ccc(O)cc2)NC(=O)[C@H](Cc2c[nH]c3ccccc23)NC(=O)[C@H](Cc2c[nH]cn2)NC1=O (single isomer, unassigned) [Peptide 3 Isomer 1b] |  |  |  | Kd [2]: 17.9 nM |
| CC(C)C[C@H](NC(=O)[C@@H]1CCCN1C(=O)[C@H](Cc1ccccc1)NC(=O)[C@H](C)NC(=O)[C@@H](NC(=O)[C@H](CO)NC(=O)[C@H](CCC(=O)O)NC(=O)[C@@H]1CCCN1C(=O)[C@H](CO)NC(=O)[C@H](CCCNC(=N)N)NC(=O)c1ccc2c(c1)C(=O)OC21c2ccc(O)cc2Oc2cc(O)ccc21)C(C)C)C(=O)N[C@@H](Cc1ccccc1)C(=O)N[C@@H](CCC(N)=O)C(=O)N[C@@H](CO)C(=O)N[C@@H](Cc1c[nH]cn1)C(=O)N[C@@H](Cc1c[nH]c2ccccc12)C(=O)N[C@@H](Cc1ccc(O)cc1)C(=O)N[C@@H](CO)C(=O)NCC(N)=O [Met10Leu mutant] (5FAM-RSPESVAFPLFQSHWYSG-NH2) |  |  |  | Kd ([2]; FP, linear peptide 3 with Met10 mutated to leucine, 20 nM peptide, 2 mM CaCl2): 30.6 ± 4.6 nM |
| CSCC[C@H](NC(=O)[C@@H]1CCCN1C(=O)[C@H](Cc1ccccc1)NC(=O)[C@H](C)NC(=O)[C@@H](NC(=O)[C@H](CO)NC(=O)[C@H](CCC(=O)O)NC(=O)[C@@H]1CCCN1C(=O)[C@H](CO)NC(=O)[C@H](CCCNC(=N)N)NC(=O)c1ccc2c(c1)C(=O)OC21c2ccc(O)cc2Oc2cc(O)ccc21)C(C)C)C(=O)N[C@@H](Cc1ccccc1)C(=O)N[C@@H](CCC(N)=O)C(=O)N[C@@H](CO)C(=O)N[C@@H](Cc1c[nH]cn1)C(=O)N[C@@H](Cc1c[nH]c2ccccc12)C(=O)N[C@@H](C)C(=O)N[C@@H](CO)C(=O)NCC(N)=O [Peptide Y16A] (5FAM-RSPESVAFPMFQSHWASG-NH2) | 6 RU | complete loss in binding |  |  |
| CSCC[C@H](NC(=O)[C@@H]1CCCN1C(=O)[C@H](C)NC(=O)[C@H](C)NC(=O)[C@@H](NC(=O)[C@H](CO)NC(=O)[C@H](CCC(=O)O)NC(=O)[C@@H]1CCCN1C(=O)[C@H](CO)NC(=O)[C@H](CCCNC(=N)N)NC(=O)c1ccc2c(c1)C(=O)OC21c2ccc(O)cc2Oc2cc(O)ccc21)C(C)C)C(=O)N[C@@H](Cc1ccccc1)C(=O)N[C@@H](CCC(N)=O)C(=O)N[C@@H](CO)C(=O)N[C@@H](Cc1c[nH]cn1)C(=O)N[C@@H](Cc1c[nH]c2ccccc12)C(=O)N[C@@H](Cc1ccc(O)cc1)C(=O)N[C@@H](CO)C(=O)NCC(N)=O [Peptide F8A] (5FAM-RSPESVAAPMFQSHWYSG-NH2) | -0.0133 RU | complete loss in binding |  |  |
| CSCC[C@H](NC(=O)[C@@H]1CCCN1C(=O)[C@H](Cc1ccccc1)NC(=O)CNC(=O)[C@@H](NC(=O)[C@H](CO)NC(=O)[C@H](CCC(=O)O)NC(=O)[C@@H]1CCCN1C(=O)[C@H](CO)NC(=O)[C@H](CCCNC(=N)N)NC(=O)c1ccc2c(c1)C(=O)OC21c2ccc(O)cc2Oc2cc(O)ccc21)C(C)C)C(=O)N[C@@H](Cc1ccccc1)C(=O)N[C@@H](CCC(N)=O)C(=O)N[C@@H](CO)C(=O)N[C@@H](Cc1c[nH]cn1)C(=O)N[C@@H](Cc1c[nH]c2ccccc12)C(=O)N[C@@H](Cc1ccc(O)cc1)C(=O)N[C@@H](CO)C(=O)NCC(N)=O [Peptide A7G] (5FAM-RSPESVGFPMFQSHWYSG-NH2) |  |  | 29 nM |  |
| CSCC[C@H](NC(=O)[C@@H]1CCCN1C(=O)[C@H](Cc1ccccc1)NC(=O)[C@H](C)NC(=O)[C@@H](NC(=O)[C@H](CO)NC(=O)[C@H](CCC(=O)O)NC(=O)[C@@H]1CCCN1C(=O)[C@H](CO)NC(=O)[C@H](CCCNC(=N)N)NC(=O)c1ccc2c(c1)C(=O)OC21c2ccc(O)cc2Oc2cc(O)ccc21)C(C)C)C(=O)N[C@@H](Cc1ccccc1)C(=O)N[C@@H](CCC(N)=O)C(=O)N[C@@H](CO)C(=O)N[C@@H](Cc1c[nH]cn1)C(=O)N[C@@H](C)C(=O)N[C@@H](Cc1ccc(O)cc1)C(=O)N[C@@H](CO)C(=O)NCC(N)=O [Peptide W15A] (5FAM-RSPESVAFPMFQSHAYSG-NH2) |  |  | 24 nM |  |
| CSCC[C@H](NC(=O)[C@H](C)NC(=O)[C@H](Cc1ccccc1)NC(=O)[C@H](C)NC(=O)[C@@H](NC(=O)[C@H](CO)NC(=O)[C@H](CCC(=O)O)NC(=O)[C@@H]1CCCN1C(=O)[C@H](CO)NC(=O)[C@H](CCCNC(=N)N)NC(=O)c1ccc2c(c1)C(=O)OC21c2ccc(O)cc2Oc2cc(O)ccc21)C(C)C)C(=O)N[C@@H](Cc1ccccc1)C(=O)N[C@@H](CCC(N)=O)C(=O)N[C@@H](CO)C(=O)N[C@@H](Cc1c[nH]cn1)C(=O)N[C@@H](Cc1c[nH]c2ccccc12)C(=O)N[C@@H](Cc1ccc(O)cc1)C(=O)N[C@@H](CO)C(=O)NCC(N)=O [Peptide P9A] (5FAM-RSPESVAFAMFQSHWYSG-NH2) |  |  | 30 nM |  |
